In US20050043534A1, “Modulators of ceramidase and methods of used based thereon” (priority 2001, published 2005):
“And” between values parts separate entries of the source, which are not always exact repeats. Equal entries are not always repeated.

What was measured:
mitochondrial ceramidase = mitochondrial ceramidase (Rattus norvegicus, UniProt Q91XT9); experiment: mitochondrial ceramidase (mt-CDase) activity, radioactive assay or HPLC assay; assay type: biochemical
Experimental: The enzymatic activity of mitochondrial ceramidase was determined by either one of the two following methods:
a. Radioactive assay: The mt-CDase activity was determined by measuring the release of radioactive fatty acid from tritiated ceramide ([^3H]-C16-Cer), labeled in the acyl chain. Briefly, organic solutions of ceramide and its analogues were initially mixed together, solvents were completely evaporated under nitrogen, then the dried lipids were dispersed in Triton-X 100 by sonication and vigorous vortexing. The reaction assay contained (in a final volume of 200 μl): enzyme (5-10 ng) and 10 nmoles of tritiated C16-ceramide (1×10^5 dpm) delivered in 100 μl of 1% Triton X-100 micelles in a glycine buffer pH 9.5 (200 mM).
b. HPLC-assay: The Mt-CDase activity was also determined by measuring the amount of sphingosine released. Basically the assay was initially the same as described above but using non-radioactive ceramide. The reaction was stopped with 800 μl of chloroform: methanol (2:1 v/v) mixture followed by the addition of phyto-sphingosine (0.5 nmoles) and dihydro-sphingosine (1 nmole) as internal standard and carrier, respectively. The reaction mix was then extracted with NaOH (50 μl, 1N), and the lower chloroform layer containing the sphingosine was further washed with water (100 μl) and dried. The released sphingosine was quantified as the ortho-phthaldehyde (OPA) derivatives as described (30). […] The solvent system was methyl alcohol: potassium phosphate buffer (5 mM), pH 7.0 (90:10 v/v) at a flow rate of 1 ml/min. […] Activity was determined relative to the phytosphingosine OPA peak.
The effects of various compounds of the invention which are stereochemical and structural analogues of ceramide and sphingosine on mt-CDase were investigated. […] Results were expressed as percent of the control ceramidase activity.

[1] = system: MCF7 human breast carcinoma cells; experiment: MTT cell viability assay, MCF7 cells; assay type: cell-based; details: 18 hours treatment
Experimental: The cells were contained at 37° C. in a humidified atmosphere containing 5% CO2 overnight. On Day 2, the cells were treated with the compound of interest which was dissolved in 100% ethanol. […] The control is a sample without the compound of interest.

[2] = system: human embryonal kidney cells HEK-293; experiment: MTT cell viability assay, HEK-293 cells; assay type: cell-based; details: 18 hours treatment
Experimental: MCF7 human breast carcinoma cells (ATCC No. HTB-22) and human embryonal kidney cells HEK-293 (ATCC No. CRL-1573) were purchased from American Type Culture Collection.
To investigate the effect of the compound of interest on each of these cell lines, on Day 1, about 50 μL (about 5,000 cells) of the MCF7 or HEK-293 cells were plated down into 96-well plate which contains RPMI 1640 1× (MOD) media (purchased from Media Tech) containing L-glutamine and 10% fetal calf serum (purchased from Gibco). The cells were contained at 37° C. in a humidified atmosphere containing 5% CO2 overnight. On Day 2, the cells were treated with the compound of interest which was dissolved in 100% ethanol. To facilitate dissolution of the compound of interest, a 98% ethanol/2% dodecane can be used as the solvent instead of 100% ethanol. […] The cells were treated with the compound of interest for 18 hours after which the effect on cell viability was measured by MTT assay (Mossman, T. (1983) J. Immuno. Meth. 65, 55-63; and Berridge, M. V. and Tan, A. S. (1993) Archives of Biochemistry & Biophysics, 303, 474-482) as described below.
MTT Assay: • (1) Add to each well 25 μL of MTT stock solution (5 mg/mL in PBS); • (2) Incubate for 5 hours; • (3) Add 100 μL of lysing buffer (20% SDS (w/v), 50% N,N-Dimethyl formamide (v/v)) and stand overnight; • (4) read plate at 595 nm.

[3] = system: mouse fibroblast cells, L929; experiment: TNFα-induced PGE2 release from L929 cells; assay type: cell-based; details: preliminary data
Description: Interleukin-1 is a major inducer of inflammation and TNF is an important regulator of the reaction. Both cytokines can activate ceramidase, and thus inhibiting the activity of ceramidase can result in an anti-inflammatory effect. This may involve the prevention of the formation of sphingosine and sphingosine phosphate which have pro-inflammatory effects. Also, inhibition of ceramidase may prevent the hyperproliferation of immune cells that are important for inflammation. […] The release of PGE2 is also shown to be inhibited by D-(N-myristolyamino)-1-phenyl-1-propanol), D-MAPP, which is an inhibitor of one of the ceramidase. This observation may be important for inhibiting inflammatory reactions that occur in conditions, such as but not limited to rheumatoid arthritis. Thus, it is possible to treat or prevent inflammation by regulating the level of cellular ceramide using the method of the invention. As discussed above, ceramide level can be increased by administering compounds of the present invention that can inhibit mitochondrial ceramidase.

mitochondrial ceramidase, sequence (Q91XT9 whole entry): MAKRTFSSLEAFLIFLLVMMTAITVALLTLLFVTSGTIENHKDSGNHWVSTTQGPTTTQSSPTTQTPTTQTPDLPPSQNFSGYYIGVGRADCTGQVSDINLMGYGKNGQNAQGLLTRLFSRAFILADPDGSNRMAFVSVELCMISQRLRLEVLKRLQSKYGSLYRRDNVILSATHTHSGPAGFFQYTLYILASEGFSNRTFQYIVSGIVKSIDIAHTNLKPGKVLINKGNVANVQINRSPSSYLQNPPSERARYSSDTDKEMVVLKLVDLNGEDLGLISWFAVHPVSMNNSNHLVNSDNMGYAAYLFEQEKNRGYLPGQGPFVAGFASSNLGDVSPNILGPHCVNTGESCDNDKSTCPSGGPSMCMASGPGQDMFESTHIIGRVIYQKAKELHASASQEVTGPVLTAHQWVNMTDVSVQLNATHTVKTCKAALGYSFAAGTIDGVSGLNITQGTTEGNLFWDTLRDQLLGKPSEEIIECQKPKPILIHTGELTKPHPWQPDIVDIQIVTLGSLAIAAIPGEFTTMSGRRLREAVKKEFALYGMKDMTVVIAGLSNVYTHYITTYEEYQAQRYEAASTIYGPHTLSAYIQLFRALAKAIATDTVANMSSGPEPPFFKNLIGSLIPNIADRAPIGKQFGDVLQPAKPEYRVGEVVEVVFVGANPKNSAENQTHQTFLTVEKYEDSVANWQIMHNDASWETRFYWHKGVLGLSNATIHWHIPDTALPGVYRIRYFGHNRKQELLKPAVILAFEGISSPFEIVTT

| Structure (SMILES) | hydrolysis by mt-CDase (substrate or not, in words) (mitochondrial ceramidase) | Estimated IC50 (mole %) (mitochondrial ceramidase; Table 1, ceramide analogues, hydrolysis of D-erythro-C16 or C18-ceramide at 0.625 mole % (50 μM)) | effect on mt-CDase activity (in words) (mitochondrial ceramidase; concentrations as stated at the place) | inhibition at 50 µM (mitochondrial ceramidase; inhibitor at 0.625 mole % (50 μM), read-out: inhibition (maximal inhibition) of mt-CDase activity) | IC50 (mitochondrial ceramidase; substrate D-erythro-ceramide 50 μM) | IC50 (50% inhibition of mt-CDase activity) (mitochondrial ceramidase; substrate D-erythro-ceramide 0.625 mole %) | type of inhibition (double reciprocal analysis: Km increased, Vmax unchanged) (mitochondrial ceramidase; varying D-erythro-ceramide concentration) | effect on cell growth and proliferation (in words) [1] | effect on cell growth and proliferation (in words) [2] | melting point | release of PGE2 [3] |
| --- | --- | --- | --- | --- | --- | --- | --- | --- | --- | --- | --- |
| CCCCCCCCCCCCC/C=C/[C@@H](O)[C@H](CO)NC(=O)NCCCCCCCCCCCCCCCC [Compound C16-urea-Cer, (2S, 3R,4E)-N-[2-(1,3-Dihydroxy-4E-octadecene)]-N′-hexadecane-urea] | not a substrate | 0.33 mole % | potent inhibitor | 75% | 25 µM | 0.33 mole % and 0.31 mole % | competitive inhibitor | potent inhibitor of cell growth and proliferation | potent inhibitor of cell growth and proliferation | 105 to 106 °C |  |
| CCCCCCCCCCCCCC(=O)NC(C)C(O)c1ccccc1 [D-MAPP] |  |  |  |  |  |  |  |  |  |  | inhibited |
